Values of other authors in US9907754B2 (VECTURA LIMITED, priority 2013, dated 2018).

Legend:
[1] = henderson-hasselbalch (1908)
[2] = EFSA; no indications of inhalation toxicity or intolerability

SMILES | water pick up, % of mass (humidity >70% RH) [%] | moisture pick up (relative humidity as high as 70%) | pKa of the sulphur-hydryl group [1] | tolerable dose [2] [mg/kg/day]
OC[C@@H](O)[C@@H](O)[C@H](O)[C@H](O)CO [Mannitol] | 10 | less than 1% |  | 
NCCS(=O)(=O)O [Taurine, 2-aminoethanesulfonic acid] |  |  | 1.49 | > 1000
